Data as given in PubChem BioAssay (NCI).
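Briefly, cells in 96-well plates were exposed to five compound concentrations for 48 h, and endpoints were estimated by linear interpolation. Definition used: TGI = concentration required for complete inhibition of growth.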

How the values were obtained:
Assay in all cases: NCI-60 cell line screen, 48 h
[1] = test system: HT29 colon
[2] = test system: SK-MEL-5 melanoma
[3] = test system: A549 NSCLC
[4] = test system: SK-MEL-2 melanoma
[5] = test system: MCF7 breast
[6] = test system: SF-295 CNS
[7] = test system: HCT-116 colon
[8] = test system: A498 renal
[9] = test system: COLO 205 colon
[10] = test system: OVCAR-5 ovarian
[11] = test system: EKVX NSCLC
[12] = test system: SF-268 CNS
[13] = test system: OVCAR-4 ovarian
[14] = test system: CCRF-CEM leukemia
[15] = test system: MDA-N
[16] = test system: UO-31 renal
[17] = test system: SW-620 colon
[18] = test system: NCI/ADR-RES ovarian
[19] = test system: UACC-257 melanoma
[20] = test system: 786-0 renal
[21] = test system: NCI-H522 lung
[22] = test system: SNB-19 CNS
[23] = test system: HOP-92 NSCLC
[24] = test system: HOP-62 NSCLC
[25] = test system: SK-OV-3 ovarian
[26] = test system: KM12 colon
[27] = test system: OVCAR-8 ovarian
[28] = test system: SR leukemia
[29] = test system: SN12C renal
[30] = test system: HCT-15 colon
[31] = test system: ACHN renal
[32] = test system: MOLT-4 leukemia
[33] = test system: TK-10 renal
[34] = test system: UACC-62 melanoma
[35] = test system: SF-539 CNS
[36] = test system: SNB-75 CNS
[37] = test system: NCI-H23 lung
[38] = test system: BT-549 breast
[39] = test system: U251 CNS
[40] = test system: NCI-H460 lung
[41] = test system: LOX IMVI melanoma
[42] = test system: NCI-H226 lung
[43] = test system: HS 578T breast
[44] = test system: PC-3 prostate
[45] = test system: HL-60(TB) leukemia
[46] = test system: IGROV1 ovarian
[47] = test system: T-47D breast
[48] = test system: CAKI-1 renal
[49] = test system: M14 melanoma
[50] = test system: MDA-MB-435
[51] = test system: RXF 393 renal
[52] = test system: OVCAR-3 ovarian
[53] = test system: MALME-3M melanoma
[54] = test system: DU-145 prostate
[55] = test system: SK-MEL-28 melanoma
[56] = test system: RPMI-8226 leukemia
[57] = test system: HCC-2998 colon
[58] = test system: K-562 leukemia
[59] = test system: MDA-MB-231 breast

CC(C)(C)[Si](C)(C)OCc1cccc(OCCOc2cccc(CO[Si](C)(C)C(C)(C)C)c2[N+](=O)[O-])c1[N+](=O)[O-]
TGI [1]: > 100 µM | TGI [2]: > 100 µM | TGI [3]: > 100 µM | TGI [4]: > 100 µM | TGI [5]: > 100 µM | TGI [6]: > 100 µM | TGI [7]: > 100 µM | TGI [8]: > 100 µM | TGI [9]: > 100 µM | TGI [10]: > 100 µM | TGI [11]: > 100 µM | TGI [12]: > 100 µM | TGI [13]: > 100 µM | TGI [14]: > 100 µM | TGI [15]: > 100 µM | TGI [16]: > 100 µM | TGI [17]: > 100 µM | TGI [18]: > 100 µM | TGI [19]: > 100 µM | TGI [20]: > 100 µM | TGI [21]: > 100 µM | TGI [22]: > 100 µM | TGI [23]: > 100 µM | TGI [24]: > 100 µM | TGI [25]: > 100 µM | TGI [26]: > 100 µM | TGI [27]: > 100 µM | TGI [28]: > 100 µM | TGI [29]: > 100 µM | TGI [30]: > 100 µM | TGI [31]: > 100 µM | TGI [32]: > 100 µM | TGI [33]: > 100 µM | TGI [34]: > 100 µM | TGI [35]: > 100 µM | TGI [36]: > 100 µM | TGI [37]: > 100 µM | TGI [38]: > 100 µM | TGI [39]: > 100 µM | TGI [40]: > 100 µM | TGI [41]: > 100 µM | TGI [42]: > 100 µM | TGI [43]: > 100 µM | TGI [44]: > 100 µM | TGI [45]: > 100 µM | TGI [46]: > 100 µM | TGI [47]: > 100 µM | TGI [48]: > 100 µM | TGI [49]: > 100 µM | TGI [50]: > 100 µM | TGI [51]: > 100 µM | TGI [52]: > 100 µM | TGI [53]: > 100 µM | TGI [54]: > 100 µM | TGI [55]: > 100 µM

C=CCP(=O)(CC=C)C(Cl)Cl
TGI [1]: > 100 µM | TGI [2]: > 100 µM | TGI [3]: > 100 µM | TGI [4]: > 100 µM | TGI [5]: > 100 µM | TGI [6]: > 100 µM | TGI [7]: > 100 µM | TGI [9]: > 100 µM | TGI [10]: > 100 µM | TGI [13]: > 100 µM | TGI [14]: > 100 µM | TGI [15]: > 100 µM | TGI [16]: > 100 µM | TGI [17]: > 100 µM | TGI [18]: > 100 µM | TGI [19]: > 100 µM | TGI [21]: > 100 µM | TGI [56]: > 100 µM | TGI [22]: > 100 µM | TGI [23]: > 100 µM | TGI [24]: > 100 µM | TGI [25]: > 100 µM | TGI [27]: > 100 µM | TGI [28]: > 100 µM | TGI [29]: > 100 µM | TGI [30]: > 100 µM | TGI [31]: > 100 µM | TGI [32]: > 100 µM | TGI [33]: > 100 µM | TGI [36]: > 100 µM | TGI [37]: > 100 µM | TGI [39]: > 100 µM | TGI [40]: > 100 µM | TGI [57]: > 100 µM | TGI [41]: > 100 µM | TGI [42]: > 100 µM | TGI [43]: > 100 µM | TGI [44]: > 100 µM | TGI [58]: > 100 µM | TGI [45]: > 100 µM | TGI [46]: > 100 µM | TGI [47]: > 100 µM | TGI [48]: > 100 µM | TGI [49]: > 100 µM | TGI [52]: > 100 µM | TGI [54]: > 100 µM | TGI [55]: > 100 µM | TGI [59]: > 100 µM

COc1ccc(Nc2ccc3ccccc3c2-c2c(O)ccc3ccccc23)cc1
TGI [1]: 29.6 µM | TGI [2]: 32.6 µM | TGI [4]: 28.3 µM | TGI [5]: 25.6 µM | TGI [6]: 34.6 µM | TGI [7]: 40.5 µM | TGI [9]: 47 µM | TGI [10]: 31.8 µM | TGI [11]: 31.8 µM | TGI [12]: 35.9 µM | TGI [13]: 41.9 µM | TGI [14]: 46.8 µM | TGI [15]: 29.4 µM | TGI [16]: 26.4 µM | TGI [17]: 28.2 µM | TGI [18]: 36.5 µM | TGI [19]: 58.9 µM | TGI [20]: 32.2 µM | TGI [21]: 32.8 µM | TGI [56]: 27.4 µM | TGI [22]: 37.2 µM | TGI [23]: 14.3 µM | TGI [24]: 25.1 µM | TGI [26]: 29.5 µM | TGI [27]: 33.6 µM | TGI [28]: 30.6 µM | TGI [29]: 35.1 µM | TGI [30]: 38.5 µM | TGI [31]: 29.8 µM | TGI [32]: 34.3 µM | TGI [33]: 75.3 µM | TGI [34]: > 100 µM | TGI [35]: 51.1 µM | TGI [36]: 46.2 µM | TGI [37]: 32.4 µM | TGI [38]: 52 µM | TGI [39]: 56 µM | TGI [40]: 30 µM | TGI [57]: 29.1 µM | TGI [41]: 37.7 µM | TGI [42]: 30.5 µM | TGI [44]: 29.3 µM | TGI [58]: 54.4 µM | TGI [45]: 55.2 µM | TGI [46]: 23 µM | TGI [47]: 34 µM | TGI [48]: 31.7 µM | TGI [50]: 20.3 µM | TGI [51]: 49.8 µM | TGI [52]: 27.7 µM | TGI [54]: 33.8 µM | TGI [55]: 31.7 µM | TGI [59]: 45.7 µM

O=c1[nH]c2ccccc2n1CCCN1CCC(n2c(=O)[nH]c3cc(Cl)ccc32)CC1
TGI [1]: 30.3 µM | TGI [2]: 29.1 µM | TGI [3]: 63.8 µM | TGI [4]: 35.7 µM | TGI [5]: 34.9 µM | TGI [7]: 31.4 µM | TGI [8]: 42.9 µM | TGI [9]: 27.9 µM | TGI [10]: 43.1 µM | TGI [11]: 42.7 µM | TGI [13]: 37.9 µM | TGI [14]: > 100 µM | TGI [15]: 29.4 µM | TGI [16]: 20.3 µM | TGI [17]: 39.2 µM | TGI [18]: 60.8 µM | TGI [19]: 30.6 µM | TGI [20]: 30 µM | TGI [21]: 29.7 µM | TGI [56]: 57.8 µM | TGI [23]: 58.2 µM | TGI [24]: 36.4 µM | TGI [25]: 51.5 µM | TGI [26]: 30.6 µM | TGI [27]: 38.6 µM | TGI [29]: 30.6 µM | TGI [30]: 39.9 µM | TGI [31]: 32.9 µM | TGI [32]: 45.1 µM | TGI [33]: 39.4 µM | TGI [34]: 37.2 µM | TGI [37]: 31.2 µM | TGI [38]: 33.2 µM | TGI [40]: 32.2 µM | TGI [57]: 30.4 µM | TGI [42]: 45 µM | TGI [43]: 49.7 µM | TGI [44]: 43.9 µM | TGI [58]: 65 µM | TGI [45]: 37.3 µM | TGI [46]: 41.3 µM | TGI [47]: 37.3 µM | TGI [48]: 50.6 µM | TGI [49]: 29.9 µM | TGI [50]: 29.7 µM | TGI [51]: 29.9 µM | TGI [52]: 38.9 µM | TGI [53]: 32 µM | TGI [54]: 39.2 µM | TGI [55]: 31.1 µM | TGI [59]: 37.4 µM
